The text below walks through data of patent US9725467B2, “Fluorinated benzenesulfonamides as inhibitors of carbonic anhydrase” (VILNIUS UNIVERSITY, priority 2012, dated 2017).

Experiment [1] addresses T1, CA VII (Homo sapiens, UniProt P43166). The experiment can be described thus: Fluorescent thermal shift assay (TSA), CA VII. The class given is binding. The conditions noted are these: 37° C., pH 7.0, read-out: Dissociation constants Kd to CA VII (converted).
The target of experiment [2] is T2, CA XIII (Homo sapiens, UniProt Q8N1Q1). Briefly: Fluorescent thermal shift assay (TSA), CA XIII. The class given is binding. The conditions noted are these: 37° C., pH 7.0, read-out: Dissociation constants Kd to CA XIII.
Experiment [3] has as its target T3, CA I (Homo sapiens, UniProt P00915). Briefly: Fluorescent thermal shift assay (TSA), CA I. The class given is binding. The conditions noted are these: 37° C., pH 7.0, read-out: Dissociation constants Kd to CA I (converted).
For experiment [4], the target named is T4, CA II (Homo sapiens, UniProt P00918). Briefly: Fluorescent thermal shift assay (TSA), CA II. The conditions noted are these: 37° C., pH 7.0, read-out: Dissociation constants Kd to CA II (converted). The class given is binding.
Experiment [5] deals with T5, CA XII (Homo sapiens, UniProt O43570). The experiment can be described thus: Fluorescent thermal shift assay (TSA), CA XII. The class given is binding. The conditions noted are these: 37° C., pH 7.0, read-out: Dissociation constants Kd to CA XII (converted).
The target in experiment [6] is T5, CA XII. The experiment can be described thus: Isothermal titration calorimetry (ITC), CA XII. The class given is binding. The conditions noted are these: 37° C., pH 7.0, read-out: Dissociation constants Kd to CA XII. In general terms: In ITC the heat of successive injections is recorded.
For experiment [7], the target named is T2, CA XIII. The experiment can be described thus: biochemical.
For experiment [8], the target named is T3, CA I. The experiment can be described thus: Isothermal titration calorimetry (ITC), CA I. Format: binding. The conditions noted are these: 37° C., pH 7.0, read-out: Dissociation constants Kd to CA I.
In experiment [9] the target is T1, CA VII. Briefly: Isothermal titration calorimetry (ITC), CA VII. The class given is binding. The conditions noted are these: 37° C., pH 7.0, read-out: Dissociation constants Kd to CA VII.
The target of experiment [10] is T4, CA II. The experiment can be described thus: biochemical.
In experiment [11] the target is T4, CA II. The experiment can be described thus: CO2 hydration assay (stopped-flow). The class given is biochemical.

T1 sequence (P43166 whole entry): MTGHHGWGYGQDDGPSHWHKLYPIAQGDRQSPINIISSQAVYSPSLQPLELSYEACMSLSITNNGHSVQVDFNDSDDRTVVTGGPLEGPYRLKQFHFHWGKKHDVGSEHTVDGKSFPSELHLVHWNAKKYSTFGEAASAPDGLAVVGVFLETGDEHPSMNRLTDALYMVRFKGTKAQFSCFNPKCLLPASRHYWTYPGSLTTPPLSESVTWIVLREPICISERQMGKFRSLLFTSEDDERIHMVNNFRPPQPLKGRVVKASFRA
T3 sequence (P00915 whole entry): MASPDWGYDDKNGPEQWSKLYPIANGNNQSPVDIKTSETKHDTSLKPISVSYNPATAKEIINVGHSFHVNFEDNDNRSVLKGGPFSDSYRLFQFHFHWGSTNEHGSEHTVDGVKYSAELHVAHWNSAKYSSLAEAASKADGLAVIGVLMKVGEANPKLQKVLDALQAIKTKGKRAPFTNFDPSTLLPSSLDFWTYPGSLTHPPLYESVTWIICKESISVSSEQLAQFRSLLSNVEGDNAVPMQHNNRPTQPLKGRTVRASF
T2 sequence (Q8N1Q1 whole entry): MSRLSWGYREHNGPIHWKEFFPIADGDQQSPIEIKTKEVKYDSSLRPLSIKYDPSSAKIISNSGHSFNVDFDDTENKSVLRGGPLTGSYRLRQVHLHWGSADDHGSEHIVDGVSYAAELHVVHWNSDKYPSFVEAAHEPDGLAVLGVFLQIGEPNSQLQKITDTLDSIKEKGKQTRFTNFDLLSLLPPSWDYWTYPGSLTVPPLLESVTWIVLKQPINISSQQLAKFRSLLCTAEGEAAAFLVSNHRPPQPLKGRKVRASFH
T5 sequence (O43570 30-291 limits assumed): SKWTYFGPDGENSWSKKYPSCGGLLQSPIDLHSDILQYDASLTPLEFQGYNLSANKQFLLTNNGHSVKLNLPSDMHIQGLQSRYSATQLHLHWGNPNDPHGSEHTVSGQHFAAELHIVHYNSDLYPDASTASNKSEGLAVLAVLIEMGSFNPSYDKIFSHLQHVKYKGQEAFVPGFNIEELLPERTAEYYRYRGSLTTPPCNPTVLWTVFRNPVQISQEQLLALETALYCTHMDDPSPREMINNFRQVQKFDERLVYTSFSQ

By Kd is commonly meant the constant that tells how readily two partners part at equilibrium. As to `NS(=O)(=O)c1c(F)c(F)c(S(=O)(=O)CCc2ccccc2)c(N[C@@H](c2ccccc2)[C@H](O)c2ccccc2)c1F` [Compound 9n, 3-{[(1S,2R)-2-hydroxy-1,2-diphenylethyl]amino}-2,5,6-trifluoro-4-[(2-phenylethyl)sulfonyl]benzenesulfonamide], the Kd in experiment [1] was 10 nM; in experiment [2] it was 5.6 nM; in [3], 1700 nM; in [4], 33 nM; in experiment [5], 250 nM.

Regarding `CC(C)Nc1c(F)c(SCCc2ccccc2)c(F)c(F)c1S(N)(=O)=O` [Compound 3a, 2-(isopropylamino)-3,5,6-trifluoro-4-[(2-phenylethyl)thio]benzenesulfonamide], the dissociation constant (Kd) in experiment [1] is 130 nM; in experiment [2] it was 67 nM; in experiment [3], 3300 nM; in experiment [4] it was 500 nM; in [5], 2900 nM.

Consider `COc1cccc(OC)c1CNc1c(F)c(S(N)(=O)=O)c(F)c(F)c1S(=O)(=O)CCc1ccccc1` [Compound 9h, 3-[(2,6-dimethoxybenzyl)amino]-2,5,6-trifluoro-4-[(2-phenylethyl)sulfonyl]benzenesulfonamide], for which the dissociation constant Kd in experiment [1] was 667 nM; in [2], 8.3 nM; in experiment [3] it was 58.8 nM; in [4], 22.2 nM; in experiment [5], 167 nM.

For the compound `NS(=O)(=O)c1c(F)c(F)c(SCCc2ccccc2)c(F)c1NC1CCCCC1` [Compound 3f, 2-(cyclohexylamino)-3,5,6-trifluoro-4-[(2-phenylethyl)thio]benzenesulfonamide], the Kd in experiment [1] is 170 nM; in experiment [2] it was 500 nM; in experiment [3] it was 25000 nM; in [4] it was 250 nM; in [5], 500 nM.

Take `NS(=O)(=O)c1c(F)c(F)c(S(=O)(=O)CCc2ccccc2)c(NC23CC4CC(CC(C4)C2)C3)c1F` [Compound 9j, 3-(1-adamantylamino)-2,5,6-trifluoro-4-[(2-phenylethyl)sulfonyl]benzenesulfonamide]: the Kd is 5 nM in experiment [1]; 5.6 nM in experiment [2]; 500 nM in experiment [3]; 50 nM in experiment [4]; 17 nM in [5].

`COc1ccc(CNc2c(F)c(S(N)(=O)=O)c(F)c(F)c2S(=O)(=O)CCc2ccccc2)cc1OC` [Compound 9i, 3-[(3,4-dimethoxybenzyl)amino]-2,5,6-trifluoro-4-[(2-phenylethyl)sulfonyl]benzenesulfonamide]: the Kd in [1] was 6.7 nM; in experiment [2], 3.3 nM; in experiment [3] it was 213 nM; in experiment [4], 22.2 nM; in experiment [5], 250 nM.

With `NS(=O)(=O)c1c(F)c(F)c(S(=O)(=O)CCc2ccccc2)c(N[C@H](c2ccccc2)[C@@H](O)c2ccccc2)c1F` [Compound 9o, 3-{[(1R,2S)-2-hydroxy-1,2-diphenylethyl]amino}-2,5,6-trifluoro-4-[(2-phenylethyl)sulfonyl]benzenesulfonamide], the dissociation constant Kd in experiment [1] was 40 nM; in [2] it was 6.7 nM; in [3], 770 nM; in [4], 91 nM; in experiment [5] it was 400 nM.

For “3-{[4-(aminosulfonyl)-2,3,5,6-tetrafluorophenyl]thio}-[1,2,3]thiadiazolo[3,4-a]benzimidazole [Compound 2w]”, the Kd was 13 nM in experiment [1], 0.4 nM in experiment [3] and 110 nM in experiment [5].

Regarding `CNc1c(F)c(S(N)(=O)=O)c(F)c(F)c1S(=O)(=O)CCc1ccccc1` [Compound 9a, 3-(methylamino)-2,5,6-trifluoro-4-[(2-phenylethyl)sulfonyl]benzenesulfonamide], the Kd in [1] was 8.3 nM; in [2], 1.3 nM; in experiment [3], 67 nM.

For `COc1cccc(OC)c1CNc1c(F)c(S(N)(=O)=O)c(F)c(F)c1S(=O)(=O)CCO` [Compound 10d, 3-[(2,6-dimethoxybenzyl)amino]-2,5,6-trifluoro-4-[(2-hydroxyethyl)sulfonyl]benzenesulfonamide], the Kd in [1] was 40 nM; in experiment [2], 25 nM; in [3], 200 nM; in experiment [4], 16.7 nM; in experiment [5] it was 66.7 nM.

For `NS(=O)(=O)c1c(F)c(F)cc(F)c1NC1CCCCCCC1` [Compound 8a, 2-(cyclooctylamino)-3,5,6-trifluorobenzenesulfonamide], the dissociation constant (Kd) was 167 nM in experiment [1]; 100 nM in [2]; 167 nM in experiment [3]; 200 nM in experiment [4]; 833 nM in experiment [5].

Turning to `NS(=O)(=O)c1c(F)c(F)c(S(=O)(=O)CCc2ccccc2)c(NCCc2ccccc2)c1F` [Compound 9d, 3-[(2-phenylethy)amino]-2,5,6-trifluoro-4-[(2-phenylethyl)sulfonyl]benzenesulfonamide], the Kd in experiment [1] was 4 nM; in experiment [2], 6.7 nM; in experiment [3] it was 500 nM; in experiment [4], 17 nM; in experiment [5], 33 nM.

Take `NS(=O)(=O)c1c(F)c(F)c(S(=O)(=O)CCc2ccccc2)c(NCc2ccccc2)c1F` [Compound 9c, 3-(benzylamino)-2,5,6-trifluoro-4-[(2-phenylethyl)sulfonyl]benzenesulfonamide]: the dissociation constant (Kd) was 5 nM in [1], 2.5 nM in experiment [2] and 56 nM in experiment [3].

Take `CC(Nc1c(F)c(SCCc2ccccc2)c(F)c(F)c1S(N)(=O)=O)c1ccccc1` (stereo not shown) [Compound 3d, 2-[(1-phenylethyl)amino]-3,5,6-trifluoro-4-[(2-phenylethyl)thio]benzenesulfonamide]: the Kd is 4000 nM in [1]; 40 nM in [2]; 1700 nM in experiment [3]; 3300 nM in experiment [4]; 5000 nM in [5].

As to `NS(=O)(=O)c1c(F)c(F)c(S(=O)(=O)CCO)c(NCc2ccccc2)c1F` [Compound 10a, 3-(benzylamino)-2,5,6-trifluoro-4-[(2-hydroxyethyl)sulfonyl]benzenesulfonamide], the Kd in experiment [1] is 130 nM; in [6] it was 12.2 nM; in [7], 45.2 nM; in [8], 130 nM; in experiment [2], 14 nM; in [9] it was 405 nM. In addition, the equilibrium dissociation constant (Kd) is 139 nM in experiment [10] and 200 nM in [3].

`NS(=O)(=O)c1c(F)c(F)c(SCCc2ccccc2)c(F)c1NC1Cc2ccccc2C1` [Compound 3l, 2-(2,3-dihydro-1H-inden-2-ylamino)-3,5,6-trifluoro-4-[(2-phenylethyl)thio]benzenesulfonamide]: the equilibrium dissociation constant (Kd) was 4000 nM in experiment [1]; 100 nM in [2]; 5000 nM in experiment [3]; 3300 nM in [4]; 1700 nM in experiment [5].

Take `COc1ccc(CNc2c(F)c(S(N)(=O)=O)c(F)c(F)c2S(=O)(=O)CCO)cc1OC` [Compound 10e, 3-[(3,4-dimethoxybenzyl)amino]-2,5,6-trifluoro-4-[(2-hydroxyethyl)sulfonyl]benzenesulfonamide]: the Kd in experiment [1] was 14.3 nM; in experiment [2], 4.3 nM; in experiment [3] it was 83.3 nM; in experiment [4], 25 nM; in [5], 66.7 nM.

As a reminder, the Ki is the equilibrium dissociation constant of an inhibitor or competing ligand from its target. Read a low Ki as tighter binding. With `NS(=O)(=O)c1c(F)c(F)c(SCCO)c(F)c1N[C@H]1CCc2ccccc21` [Compound 4e, 2-[(1S)-2,3-dihydro-1H-inden-1-ylamino]-3,5,6-trifluoro-4-[(2-hydroxyethyl)thio]benzenesulfonamide], the Kd was 1100 nM in experiment [1]; 33.3 nM in [2]; 8300 nM in experiment [3]; 2780 nM in experiment [4]; 1250 nM in experiment [5]. This compound also had a Ki in experiment [11] of 500 nM.
